Laboratory results published in patent publication US5677324A, “Benzopyranes as potassium channel openers” (Pfizer Inc., priority 1993, dated 1997).

Test system: guinea pig tracheal ring preparations
Assay: in vitro relaxation of guinea pig tracheal ring preparations (smooth muscle relaxant activity)
Type: cell-based
Conditions: Cavia porcellus; relaxation of KCl (20 mM)-contracted tracheal strips, Krebs solution, 37° C.; reversal to pretreatment base line = 100 percent relaxation
Source text: The compounds of the formula (I) have smooth muscle relaxant activity since they are able to open potassium channels in such tissue. They can be tested for smooth muscle relaxant activity by a method involving measuring the in vitro relaxation of guinea pig tracheal ring preparations as follows:
Male guinea pigs (500-600 g) were killed by a blow to the head and exsanguinated. The trachea was removed, placed in Krebs solution and cleaned. The trachea was slit through the cartilage along it's longitudinal axis and strips consisting of four adjacent cartilage rings were prepared. The strips were each placed in a water-jacketed organ bath (37° C.) containing Krebs solution and tied to a force-displacementtransducer for the measurement of isometric tension responses. The tissues were equilibrated for 60 minutes under a resting load of 1 g and washed every 15 minutes before the start of each experiment.
The composition of the Krebs solution was as follows (millimoles):- NaCl (119); KCl (4.7); NaHCO3 (25); KH2 PO4 (1.2); MgSO4 (1.2); CaCl2 (2.5); glucose (11), and indomethacin (2.8 μM) was added to remove the influence of the endogenous prostanoids. The solution was gassed with 95% O2 /5% CO2 and the temperature was kept constant at 37° C.
After the equilibration period a priming dose of KCl (20 mM) was added to each tissue bath and after a further 20 minutes the tissue was washed. After a further 30 minutes KCl (20 mM) was added to contract each tissue. The relaxant action of a compound of the formula (I) was examined when the maintained contractile response had stabilized. The compounds can be added cumulatively (10^-8 -10^-5 […]) at 5 minute intervals.
The reversal to pretreatment base line was taken as 100 percent relaxation in these studies and concentration-relaxation curves were constructed in order to obtain IC50 values for potency.
A selection of the compounds of the preceding Examples was tested for smooth muscle relaxant activity by the method involving measuring the in vitro relaxation of guinea pig tracheal ring preparations as described on pages 31 and 32 of the description.

## Cn1nnnc1-c1ccc2c(c1)[C@@H](N1CCCCC1=O)[C@H](O)C(C)(C)O2 (relative stereo) [Example 36]
  IC50: 0.068 µM

## Cn1nnnc1-c1ccc2c(c1)[C@@H](Oc1ccc(=O)[nH]n1)[C@](C)(O)C(C)(C)O2 [Example 3]
  IC50: 0.15 µM

## CC1(C)Oc2ccc(-c3nnnn3CCc3ccccc3)cc2C(Oc2ccc(=O)[nH]n2)C1(C)O (centres unmarked) [Example 7]
  IC50: 0.44 µM

## CC1(C)Oc2ccc(-c3nnnn3CCc3ccccc3)cc2[C@@H](N2CCCCC2=O)[C@@H]1O (relative stereo) [Example 35]
  IC50: 0.04 µM

## CCOC(=O)CCCCn1nnnc1-c1ccc2c(c1)[C@@H](Oc1ccc(O)nn1)[C@](C)(O)C(C)(C)O2 [Example 11, (3S,4R)-3,4-dihydro-6-(1-[4-ethoxycarbonylbut-1-yl]-1H-tetrazol-5-yl)-3-hydroxy-4-(3-hydroxypyridazin-6-yl)oxy-2,2,3-trimethyl-2H-benzo[b]pyran]
  IC50: 0.12 µM
